According to patent US6395787B1, “Ocular hypotensive lipids” (Allergan Sales, Inc., priority 2000, dated 2002):

Legend:
[1] = test system: human platelets (DP-, TP- and IP-receptor types); experiment: Human platelet aggregation and inhibition of ADP-induced aggregation; type: cell-based
Procedure: Prostanoid activity at the DP-, TP- and IP-receptor types was determined by an ability to cause aggregation (TP-receptor activity) or to inhibit ADP-induced aggregation of human platelets in vitro (DP- and IP-receptor activity). Fresh whole blood was obtained from consenting healthy human volunteers and mixed with acid citrate-dextrose (ACD). The blood was centrifuged at 1000 rpm for 15-20 minutes to obtain platelet rich plasma (PRP). 4.5 μl of prostanoid or vehicle was added to 450 μl of PRP and incubated for 2 minutes at 37° C. in a Payton aggregometer and observed for any aggregatory activity. 2×10^−5 M ADP (final concentration) was then added to induce full aggregation. Inhibition of aggregation was calculated as the percentage difference between aggregation evoked by 2×10^−5 M ADP in the absence and presence of drug. Aggregatory activity was calculated as the percent aggregation induced by the prostanoid relative to the aggregation induced by 2×10^−5 M ADP. Standard aggregatory responses to 2×10^−5 M ADP alone were performed at the beginning and end of each experiment.

[2] = test system: rabbit jugular vein segment; experiment: Vasorelaxation of histamine precontracted rabbit jugular vein segment
Procedure: Smooth muscle tension of isolated tissues was measured isometrically with force displacement transducers (Grass FT-03) and recorded on Grass Polygraphs (Models 7G and 79E). The organ baths contained Krebs solution maintained at 37° C. and gassed with 95% 02/5% CO2 to give a pH of 7.4. The Krebs solution had the following composition (mM): NaCl, 118.0; KCl, 4.7; KH2PO4, 1.2; CaCl2, 1.9; MgSO4, 1.18; NaHCO3, 25.0; glucose, 11.7; indomethacin, 0.001.
New Zealand albino rabbit of either sex, weighing 2-4 kg, were injected with 1000 U heparin into the marginal ear vein and then sacrificed by CO2 gas. The external jugular veins were cleared of fat and adherent connective tissue and removed. The veins were transected and each ring of 3-4 mm length was suspended between two metal hooks in a jacketed organ bath. The tissues were equilibrated for 1 hr under 0.75 g tension, which was readjusted as the tissues relaxed. Single doses of histamine, 10^−5 M then 2-3×10^−6 M, with washing after each dose, were given to contract the tissue and establish responsiveness. The TP-receptor antagonist SQ29548, (Ogletree et al. (1985) J. Pharmacol. Exp. Ther. 234 435-441) at (10^−6 M), was applied for 5 min and then histamine 2-3×10^−6 M was added to elicit the contractile response. After 30 min of pretreatment with the histamine, the relaxant response was tested by adding cumulative doses of the test compounds with 10^−8 M to 10^−7 M PGE2 at the end of each dose-response curve as a reference. A recovery period of 30-50 min was allowed after wash-out of the tissues. Relaxant activity was calculated as % of the control tone elicited by histamine.

[3] = test system: dog ocular surface hyperemia; experiment: Dog ocular surface hyperemia; type: in vivo; parameters: key: <1 trace 0.5; 1 mild 1; moderate 2; severe 3; settings: throughout the 24 hr experimental period, trace for vehicle
Procedure: Ocular surface hyperemia was visually assessed and scored according to a system typically used clinically.
Ocular surface hyperemia was evaluated at the same time points as intraocular pressure measurement. It should be noted that untreated dog eyes frequently have a pink/red tone. Thus, values of trace or even mild are not necessarily out of the normal range.

[4] = molecular target: human FP receptor (Homo sapiens, UniProt P43088); experiment: Ca2+ signal in CRL 1497 cells; type: cell-based; parameters: endogenous in cells; host or cells: CRL 1497 human dermal fibroblasts; Δ[Ca^2+]i mean χ ± SEM: unit not given here; settings: for Δ[Ca^2+]i mean χ ± SEM: n = 4
Procedure: Human CRL 1497 cells were plated in culture flasks and fed Dulbecco's modified Eagle's medium (DMEM) containing 10% fetal calf serum, 2 mM 1-glutamine, and 0.05 mg/ml gentacin (all purchased from Gibco, Grand Island, N.Y.). Cell cultures were maintained in a humidified atmosphere of 95% air, 5% CO2 and grown to confluency. Cells were removed from the culture flasks by approximately 1 min treatment with trypsin 0.05%/0.53 mM EDTA in Hanks Balanced Salt Solution (HBSS, Gibco, Grand Island, N.Y.) at 37° C. Proteolytic activity was arrested by adding 5 ml of 10% fetal bovine serum in DMEM. The cells were consecutively washed in Hank's BSS and medium containing 140 mM NaCl, […], 1 mM MgCl2, 1.5 mM CaCl2, 10 mM HEPES: TRIS, 5 mM glucose, 5 mM Na pyruvate, 0.1% bovine serum albumin at pH 7.4: Centrifugation for the washes was performed for 15 minutes at 200 g at room temperature. Cells were counted, resuspended in the above medium and incubated with 2×10^−6 M Fura 2/acetoxymethyl ester in a shaking water bath for 30 minutes at 37° C. The cells were subsequently washed in medium as above and resuspended at a concentration of 2×10^6 cells ml^−1. Aliquots of 0.5 ml cell suspension were then added to autocap microtubes to provide 10^6 cells per experimental determination of intracellular free Ca^2+ concentration ([Ca^2+]i).
Fluorescence was measured in a Perkin-Elmer LS-5 fluorescence spectrophotometer at excitation and emission wavelengths of 340 and 492 nm, respectively, with both slits at 10 nm. For each experimental determination 10^6 cells were washed (200×g for 5 min) and suspended in a 2 ml cuvette with buffer containing 120 mM NaCl, 6 mM KCl, 1 mM MgSO4, 1.5 mM CaCl2, 20 mM HEPES, 1 mg ml^−1 glucose and 1 mg ml^−1 Na pyruvate. Stirring was achieved by an overhead-mounted, paddle stirrer with the temperature maintained at 37° C. The cells were lysed with digitonin (10 μl of 100 mg ml^−1 DMSO) to obtain fmax. EGTA (100 mM) and sufficient 10N NaOH to adjust the pH to 8.5 were then successively added to obtain fmin.

Sequence of human FP receptor (P43088 whole entry): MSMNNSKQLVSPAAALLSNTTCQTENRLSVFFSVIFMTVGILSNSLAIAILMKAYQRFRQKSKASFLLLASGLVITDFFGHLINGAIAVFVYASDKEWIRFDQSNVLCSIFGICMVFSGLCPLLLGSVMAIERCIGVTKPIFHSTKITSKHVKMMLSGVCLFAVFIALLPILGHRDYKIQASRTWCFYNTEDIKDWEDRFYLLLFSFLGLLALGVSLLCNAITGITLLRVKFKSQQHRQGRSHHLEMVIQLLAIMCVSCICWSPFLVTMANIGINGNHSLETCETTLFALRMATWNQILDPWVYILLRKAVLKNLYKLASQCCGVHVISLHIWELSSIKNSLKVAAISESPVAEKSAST

Structure (SMILES): CCCCC[C@H](O)/C=C/[C@@H]1[C@@H](C/C=C\CCCC(=O)NCCO)[C@@H](O)C[C@H]1O [PGF2α 1-ethanolamide, (5Z,8α,9α,11α,13E,15S)-9,11,15-trihydroxy-N-(2-hydroxyethyL)prosta-5,13-dien-1-amide]
- effect on platelets (aggregation; inhibition of ADP induced aggregation) [1]: No effect
- EC50 ([2]; Oryctolagus cuniculus, histamine precontracted, read-out: E.C.50, vasorelaxation of the precontracted rabbit jugular vein segment): 2 µM
- endothelium dependent vasorelaxation ([2]; histamine precontracted rabbit jugular vein segment): relatively little activity
- ocular surface hyperemia [3]: mild
- Δ[Ca^2+]i mean χ ± SEM ([4]; 10^−5 M, CRL 1497 cells): 97.9 ± 10.8
- Δ[Ca^2+]i mean χ ± SEM ([4]; 10^−6 M, CRL 1497 cells): 45.8 ± 11.5
- Δ[Ca^2+]i mean χ ± SEM ([4]; 10^−7 M, CRL 1497 cells): 13.5 ± 3.9
- Δ[Ca^2+]i mean χ ± SEM ([4]; 10^−8 M, CRL 1497 cells): 3.4 ± 1.5
- difference in potency at the human FP receptor vs PGF2α ([4]; CRL 1497 cells, Ca2+ signal): about a one hundred fold difference in potency
- EC50 ([4]; CRL 1497 human dermal fibroblasts, read-out: E.C.50, Ca2+ signal): 1.59 µM
